From patent publication US20240238213A1 (New York University in Abu Dhabi Corporation, priority 2021, published 2024)

Columns and labels:
[1] = system: STZ-induced diabetic rats; details: SC insulin 5 IU·kg^−1 or oral TTA-DFP-nCOF/Insulin 50 IU·kg^−1
[2] = system: STZ-induced diabetic rats; test: In vivo hypoglycemic effect; parameters: species or system Wistar rats; details: subcutaneous injection, 5 IU kg^−1
[3] = system: non-everted mouse small intestine sac; details: pure insulin; cited from earlier work
[4] = system: STZ-induced diabetic rats; details: rat, in vivo
[5] = system: STZ-induced diabetic rats; test: In vivo oral glucose tolerance test (OGTT); parameters: species or system Wistar rats; details: glucose 2.5 g·kg^−1 by gavage 3 hours after treatment, 280 minutes; SC 5 IU·kg^−1 or oral 50 IU·kg^−1
R-HepG2 cells = test: Glucose consumption assay in insulin-resistant cells; format: cell-based, human; details: R-HepG2, [Insulin]=10 μM
Hep-G2 cells = test: Insulin-FITC internalization in cells by confocal microscopy; format: cell-based, human; details: 4 h incubation, [Insulin-FITC]=10 μM

insulin
HOMA-IR [1]: 0.6 (0.3)
HOMA-IS [1]: 50.4 (11.0)
persistence of the blood glucose reduction [2]: the effect was not sustained
time to marked reduction of the blood glucose level [2]: ≤ 1 h
Permeability (reported value) [3]: 8.02 μg·cm^−2
histopathology of liver and kidney [4]: commonly observed damages to the liver and kidney
histopathology of the kidney [4]: increase of the size of Bowman capsules, hypertrophy of the glomeruli and necrosis of the tubules
histopathology of the liver [4]: increase of big hepatocytes, a necrosis of hepatocytes and a narrowing in the sinusoids
glycaemia in OGTT [5]: decreases severely the glucose plasma level the two first hours after the glucose gavage
change of cellular glucose metabolism after 4 h (R-HepG2 cells; t=4 h): transient increase in cellular glucose metabolism
change of cellular glucose metabolism / insulin resistance after 24 h (R-HepG2 cells; t=24 h): statistically significant worsening
intracellular insulin-FITC signal / localization (Hep-G2 cells): no detectable intracellular insulin-FITC signal
